Tested on: MatTek EFT-400 full thickness tissues
Experiment: DNA microarray gene expression in skin equivalents, complex vs individual ingredients (Example 5)
Type: cell-based
Design: key to Genes up and downregulation in pathway: + = up-regulated; − = down-regulated; *non-significant down-regulation, thus, regulation is considered as non-affected (NA)
Details: for Up-Regulated Genes (number): cut off of two fold change of adjusted Fold Change, 48 hours
Experimental: MatTek EFT-400 full thickness tissues were used as the model for this study. Upon arrival, the full thickness tissues were placed into 6 wells plates with 2 ml of culture media and incubated overnight at 37±2° C. and 5±1% CO2. After this overnight incubation the culture media was replaced with 5 ml of fresh media and the tissues were treated topically with the test materials prepared in distilled water as follows:
After the application of the test materials the tissues were incubated at 37±2° C. and […] for 48 hours.
At the end of the treatment period, the tissues were rinsed and transferred to a 2 ml centrifuge tube containing 700 μl of lysis buffer and homogenized. After centrifuging at 14,000×g for 10 minutes at 4° C. the supernatant from each tube was transferred to a new 1.5 ml tube and mixed with and equal volume of 64% ethanol. After mixing the solutions was transferred to glass fiber filter cartridges and the cartridges were loaded into a 1.5 ml collection tube centrifuged for 1 minute at 14,000 RPM in a Napco 2002 Microcentrifuge with a DA-6T fixed angle rotor. The flow through was discarded and any remaining mixture was loaded into the filter cartridge and the centrifugation process was repeated until all of the mixture had been processed. The filter was then washed to remove any residual cellular debris from the RNA bound to the glass fibers by subsequently applying 700 μl of wash solution 1 (1 time) and 500 μl of wash solution 2 (2 times) to the filter cartridge and centrifuging at 14,000 RPM for 1 minute to pass each wash through the cartridge. After each wash, the flow through was discarded. After the final wash one final spin was performed without wash solution to remove any residual wash solution in the filter cartridge. The RNA bound to the glass fibers within the cartridge was then eluted by applying 40 μl of TE buffer (10 mM Tris-HCl, 1 mM EDTA, preheated to 70-80° C.) to the cartridge and centrifuging the cartridge in a new collection tube at 14,000 RPM for one minute. The elution process was then repeated a second time using 20 μl of TE buffer.
First Strand cDNA Synthesis: To start the first strand synthesis, 10 μl of total RNA for each sample was added to a 600 μl PCR tube and the total volume of liquid in the tube will be adjusted to 11 μl with DEPC H2O. Next, 1 μl of T7 Oligo(dT) primer was added and the tube was incubated in a water bath at 70±2° C. for 10 minutes to denature the RNA and then placed on ice to allow the primers to anneal to the poly A ends of the mRNA. After cooling 2 μl of 10× first strand buffer, 1 μl of RNAse inhibitor and 4 μl of dNTP mix were added to each tube, and the tube was incubated at 42° C. in a hybridization oven (Labnet Problot). As soon as the tube was heated, 1 μl of Reverse Transcriptase was added and the tubes were returned to 42±2° C. for 2 hours. At the end of the two hours the tubes were briefly centrifuged to collect all of the fluid at the bottom of the tube and then placed on ice.
Two tubes were prepared for the labeling process, one for Cy3 labeling (green) and one for Cy5 labeling (red). To the Cy3 tube 2 μg of aRNA prepared from the untreated/control sample (the actual color assignment for each sample is not important, but for consistency Cy3 is normally used for the untreated sample) and enough DEPC H2O was added to bring the total volume up to 4 μl. To the Cy5 tube 2 μg of aRNA prepared from the sample treated with the test material and enough DEPC H2O was added to bring the total volume up to 4 μl. To both tubes 5 μl of ASAP labeling buffer was added along with 1 μl of the specific dye for the tube (Cy3 or Cy5). The tubes were incubated for 15 minutes at 85±2° C. At the end of the 15 minutes the tubes were placed on ice to cool them and then add 2.5 μl of ASAP stop solution was added to each tube.

[1] = KEGG_NUCLEOTIDE_EXCISION_REPAIR
[2] = KEGG_SIGNALING_PATHWAYS_REGULATING_PLURIPOTENCY_OF_STEM_CELLS
[3] = WIKI_ASSEMBLY_OF_COLLAGEN_FIBRILS_AND_OTHER_MULTIMERIC_STRUCTURES

SMILES: NC(=O)c1cccnc1 [Niacinamide]
- z-score (KEGG_APOPTOSIS): −0.6704
- z-score (KEGG_BASE_EXCISION_REPAIR): 0.1343
- Genes up and downregulation in pathway (KEGG_CELL_CYCLE): −
- z-score (KEGG_CELL_CYCLE): −1.1781
- z-score (KEGG_CIRCADIAN_RHYTHM_MAMMAL): 0.1529
- z-score (KEGG_FATTY_ACID_BIOSYNTHESIS): −1.579
- z-score (KEGG_FATTY_ACID_DEGRADATION): −0.3119
- z-score (KEGG_GLYCOLYSIS_GLUCONEOGENESIS): 0.7976
- z-score (KEGG_NF_KAPPA_B_SIGNALING_PATHWAY): −0.7978
- Genes up and downregulation in pathway [1]: −
- z-score [1]: −0.2743
- z-score (KEGG_OXIDATIVE_PHOSPHORYLATION): 0.1959
- Genes up and downregulation in pathway (KEGG_P53_SIGNALING_PATHWAY): −
- z-score (KEGG_P53_SIGNALING_PATHWAY): −0.04133
- z-score (KEGG_PROTEASOME): −1.4338
- z-score (KEGG_RETINOL_METABOLISM): 0.7797
- Genes up and downregulation in pathway [2]: −
- z-score [2]: −1.5828
- z-score (KEGG_SPHINGOLIPID_METABOLISM): −1.4272
- z-score (KEGG_TH1_AND_TH2_CELL_DIFFERENTIATION): −0.6106
- z-score (KEGG_TIGHT_JUNCTION): 1.7592
- z-score (KEGG_TNF_SIGNALING_PATHWAY): −1.6603
- z-score (KEGG_T_CELL_RECEPTOR_SIGNALING_PATHWAY): −0.515
- z-score (KEGG_WNT_SIGNALING_PATHWAY): −0.8093
- z-score (WIKI_ACTIVATION_OF_MATRIX_METALLOPROTEINASES): 1.5758
- Genes up and downregulation in pathway [3]: −
- z-score [3]: −0.4818
- z-score (WIKI_COLLAGEN_BIOSYNTHESIS_AND_MODIFYING_ENZYMES): 1.0367
- z-score (WIKI_COLLAGEN_DEGRADATION): 0.7489
- z-score (WIKI_DEGRADATION_OF_THE_EXTRACELLULAR_MATRIX): 0.02517
- Genes up and downregulation in pathway (WIKI_ELASTIC_FIBRE_FORMATION): −
- z-score (WIKI_ELASTIC_FIBRE_FORMATION): −1.0086
- z-score (WIKI_ELECTRON_TRANSPORT_CHAIN_IN_MITOCHONDRIA): −0.6757
- z-score (WIKI_EXTRACELLULAR_MATRIX_ORGANIZATION): 0.2738
- Genes up and downregulation in pathway (WIKI_KERATINIZATION): +
- regulation of WIKI_KERATINIZATION pathway (Z-Score heatmap, in words) (WIKI_KERATINIZATION): up-regulated
- z-score (WIKI_KERATINIZATION): 7.5403
- z-score (WIKI_NRF2_PATHWAY): 2.1898
- z-score (WIKI_RESPIRATORY_ELECTRON_TRANSPORT_ATP_SYNTHESIS): −0.7571
- z-score (WIKI_SPHINGOLIPID_METABOLISM): −0.1492
- Up-Regulated Genes (number) (19254 genes evaluated): 133
- Up-Regulated Genes (number) (second column of Table 6): 70
